Test results: patent US9181265B2, “Substituted 2,3-dihydro-1H-benzo[a]pyrano[2,3-c]phenazines as anti-angiogenic and anti-cancer agents” (UNIVERSITE CATHOLIQUE DE LOUVAIN, priority 2010, dated 2015)
Where two headings read alike, the source gives them in different places. Marks after values point to notes of the source that are not given here.

What was measured:
[1] = tested on: siHa; test: MTT test of overall cell growth, SiHa cervix cancer cells, normoxia or hypoxia; type: cell-based, human; details: for Selectivity: IC50 (normoxia)/IC50 (hypoxia 1% O2), if u.t.d., ratio of activity at 100 μM
Method: (§1) MTT tests were performed in order to rapidly, i.e. within 3 days, measure the effect of compounds of this invention on the overall cell growth. The test measured the number of metabolically active living cells that were able to transform the yellow product 3-(4,5-dimethylthiazol-2-yl)-2,5-diphenyl tetrazolium bromide (herein referred as MTT) into the blue product formazan dye by mitochondrial reduction. The amount of formazan obtained at the end of the experiment, measured by means of a spectrophotometer (Plate Reader Victor X4 Microplate reader (Perkin Elmer), is directly proportional to the number of living cells. Optical density determination thus enabled a quantitative measurement of the effect of the investigated compounds under control conditions (normoxia) as compared to the hypoxic conditions (0.1 or 1% O2) and/or untreated conditions.
(§2) Human umbilical vein endothelial cells (HUVEC) and six human cancer cell lines were used in the MTT tests. These cancer cell lines cover five histological cancer types including cervix (SiHa), breast (MCF-7 and MDA-MB231), prostate (PC3), glioma (U373), and colorectal (LoVo) cancers.
(§3) To perform the assay, cells were allowed to grow in 96-well microplates with a flat bottom following addition of an amount of 100 μl of cell suspension per well with 4,500 cells/well. Each cell line was seeded in its appropriate culture medium. HUVEC were cultured in a specific endothelial cell growth medium (ECACC, Sigma); SiHa cells in Glutamax-containing DMEM with 4.5 g/1 glucose (Invitrogen) supplemented with 10% Foetal Bovine Serum (PAA) and 1% penicillin+streptomycin mix (Invitrogen); MCF-7, MDA-MB-231, PC3, and LoVo cells in Glutamax-containing RPMI supplemented with 10% Foetal Bovine Serum (PAA) and 1% penicillin+streptomycin mix (Invitrogen) and U373 cells in Glutamax-containing DMEM (Invitrogen) with 5% Foetal Bovine Serum (PAA) and 1% penicillin+streptomycin mix (Invitrogen).
(§4) The detailed experimental procedure was the following: after a 24-hour period of incubation at 37° C., the culture medium was replaced by 100 μl of fresh medium in which the tested compound was previously dissolved, at the following concentrations: 10^−8 M, 5.10^−8, 10^−7, 5.10^−7, 10^−6, 5.10^−6, 10^−5, 5.10^−5 and 10^−[…]. Each experiment was performed in sestuplicates (6 times).
(§5) Cells were then incubated under normoxia in a Binder incubator (the O2 level corresponding to the concentration in the ambient air), or in a Ruskin hypoxia workstation under either 0.1% O2 (v/v) or 1% O2 (v/v). Under both conditions, the atmosphere was humidified and the CO2 concentration was fixed at 5 vol. %.
(§6) After 72 hours of incubation at 37° C. under normoxic or hypoxic conditions, with or without the compound to be tested, the medium was replaced by 100 μl of HBSS (without phenol red) containing MTT at a concentration of 0.5 or 1 mg/ml. The micro-wells were subsequently incubated during 3 hours and a half at 37° C. and centrifuged at 1300 rpm during 10 minutes. Medium was removed and formazan crystals formed were dissolved in 100 μl DMSO. The micro-wells were shaken for 5 minutes and read on a spectrophotometer at wavelengths of 570 nm (maximal formazan absorbance).
(§7) For each experimental condition, the mean optical density was calculated, allowing the determination of the percentage of living cells in comparison to the control.

[2] = tested on: Human umbilical vein endothelial cells (HUVEC); test: MTT test of overall cell growth, endothelial cells, normoxic or hypoxic conditions; type: cell-based; details: for Selectivity: if u.t.d., ratio of activity at 100 μM
Method: as §1, §2, §3, §4, §5, §6, §7

[3] = tested on: U373; test: MTT test of overall cell growth, U373 glioma cells, normoxia or hypoxia; type: cell-based, human; details: for Selectivity: U373, IC50 (normoxia)/IC50 (hypoxia 1% O2), if u.t.d., ratio of activity at 100 μM
Method: as §1, §2, §3, §4, §5, §6, §7

[4] = tested on: LoVo; test: MTT test of overall cell growth, LoVo colorectal cancer cells, normoxia or hypoxia; type: cell-based, human; details: for Selectivity: IC50 (normoxia)/IC50 (hypoxia 1% O2), if u.t.d., ratio of activity at 100 μM
Method: as §1, §2, §3, §4, §5, §6, §7

[5] = tested on: MDA-MB-231; test: MTT test of overall cell growth, MDA-MB-231 breast cancer cells, normoxia or hypoxia; type: cell-based, human; details: for Selectivity: MDA-MB-231, IC50 (normoxia)/IC50 (hypoxia 1% O2), if u.t.d., ratio of activity at 100 μM
Method: as §1, §2, §3, §4, §5, §6, §7

[6] = tested on: PC3; test: MTT test of overall cell growth, PC3 prostate cancer cells, normoxia or hypoxia; type: cell-based, human
Method: as §1, §2, §3, §4, §5, §6, §7

[7] = tested on: MCF-7; test: MTT test of overall cell growth, MCF-7 breast cancer cells, normoxia or hypoxia; type: cell-based, human; details: for Selectivity: MCF-7, IC50 (normoxia)/IC50 (hypoxia 1% O2), if u.t.d., ratio of activity at 100 μM
Method: as §1, §2, §3, §4, §5, §6, §7

[8] = Homo sapiens, hypoxia 1% O2, 72 h, read-out: IC50 (μM) Hypoxia 1% O2
[9] = Homo sapiens, 72 h, hypoxia 0.1% O2, 72 h, read-out: IC50 (μM) Hypoxia 0.1%
[10] = Homo sapiens, 72 h, hypoxia 1% O2, 72 h, read-out: IC50 (μM) Hypoxia 1%
[11] = Homo sapiens, 72 h, normoxia, 72 h, series compared with hypoxia 1%, read-out: IC50 (μM) Normoxia
[12] = IC50 (normoxia)/IC50 (hypoxia 0.1%)
[13] = IC50 (normoxia)/IC50 (hypoxia 1%)
[14] = Homo sapiens, U373 MG, U373, hypoxia 1% O2, 72 h, read-out: IC50 (μM) Hypoxia 1% O2
[15] = Homo sapiens, normoxia, 72 h, read-out: IC50 (μM) Normoxia
[16] = Homo sapiens, MDA-MB-231, hypoxia 1% O2, 72 h, read-out: IC50 (μM) Hypoxia 1% O2
[17] = hypoxia 1% O2, 72 h, read-out: IC50 (μM) Hypoxia 1% O2
[18] = normoxia, 72 h, read-out: IC50 (μM) Normoxia

| Structure (SMILES) | IC50 [1, 8] | Selectivity [1] | IC50 (μM) Normoxia ([1]; normoxia, 72 h) | IC50 [2, 9] | IC50 [2, 10] | IC50 [2, 11] | Selectivity [2, 12] | Selectivity [2, 13] | IC50 [3, 14] | IC50 (μM) Normoxia ([3]; U373, normoxia, 72 h) | Selectivity [3] | IC50 [4, 8] | IC50 [4, 15] | Selectivity [4] | IC50 [5, 16] | IC50 (μM) Normoxia ([5]; MDA-MB-231, normoxia, 72 h) | Selectivity [5] | IC50 (μM) Hypoxia 1% O2 ([6]; PC3, hypoxia 1% O2, 72 h) | IC50 (μM) Normoxia ([6]; PC3, normoxia, 72 h) | IC50 (μM) Normoxia ([7]; MCF-7, normoxia, 72 h) | also measured |
| --- | --- | --- | --- | --- | --- | --- | --- | --- | --- | --- | --- | --- | --- | --- | --- | --- | --- | --- | --- | --- | --- |
| COc1ccc(CNC(=O)c2ccc3nc4c(nc3c2)c2c(c3ccccc34)OC(C)(C)[C@H]3CC[C@H](C)C[C@H]23)c(OC)c1 [Compound 16′] | 92.1 µM | >1.89^b | u.t.d. | 0.21 µM | 7.96 µM | 120 µM | 80 | 15 | 113 µM | u.t.d. | >1.54^b | 154 µM | 116 µM | 0.76 | 126 µM | u.t.d. | >1.38^b | u.t.d. | u.t.d. | u.t.d. | IC50 ([2]; Homo sapiens, 72 h, normoxia, 72 h, series compared with hypoxia 0.1%, read-out: IC50 (μM) Normoxia): 16.7 µM; IC50 ([7]; Homo sapiens, MCF7, MCF-7, hypoxia 1% O2, 72 h, read-out: IC50 (μM) Hypoxia 1% O2): 91.2 µM; Selectivity [7]: >1.91^b |
| C[C@H]1CC[C@H]2[C@H](C1)c1c(c3ccccc3c3nc4cc(C(=O)N[C@@H](CO)Cc5ccccc5)ccc4nc13)OC2(C)C [Compound 17] | – | 7.12 | – | – | – | – | 134 | 8 | – | – | 5.65 | – | – | 1.04 | – | – | 1.17 | – | – | – | IC50 [1, 17]: 10.5 µM; IC50 [1, 18]: 75 µM; IC50 ([2]; hypoxia 0.1% O2, 72 h, read-out: IC50 (μM) Hypoxia 0.1%): 0.05 µM; IC50 ([2]; hypoxia 1% O2, 72 h, read-out: IC50 (μM) Hypoxia 1%): 0.63 µM; IC50 ([2]; normoxia, 72 h, series compared with hypoxia 0.1%, read-out: IC50 (μM) Normoxia): 6.25 µM; IC50 ([2]; normoxia, 72 h, series compared with hypoxia 1%, read-out: IC50 (μM) Normoxia): 5.18 µM; IC50 ([3]; U373, hypoxia 1% O2, 72 h, read-out: IC50 (μM) Hypoxia 1% O2): 1.23 µM; IC50 ([3]; U373, normoxia, 72 h, read-out: IC50 (μM) Normoxia): 6.97 µM; IC50 [4, 17]: 9.47 µM; IC50 [4, 18]: 9.83 µM; IC50 ([5]; MDA-MB-231, hypoxia 1% O2, 72 h, read-out: IC50 (μM) Hypoxia 1% O2): 11.4 µM; IC50 ([5]; MDA-MB-231, normoxia, 72 h, read-out: IC50 (μM) Normoxia): 13.4 µM; IC50 ([6]; PC3, hypoxia 1% O2, 72 h, read-out: IC50 (μM) Hypoxia 1% O2): 11.1 µM; IC50 ([6]; PC3, normoxia, 72 h, read-out: IC50 (μM) Normoxia): 10.4 µM; Selectivity ([6]; PC3, IC50 (normoxia)/IC50 (hypoxia 1% O2), if u.t.d., ratio of activity at 100 μM): 0.94; IC50 ([7]; MCF-7, hypoxia 1% O2, 72 h, read-out: IC50 (μM) Hypoxia 1% O2): 11.1 µM; IC50 ([7]; MCF-7, normoxia, 72 h, read-out: IC50 (μM) Normoxia): 12.2 µM; Selectivity [7]: 1.10 |
| COC(=O)c1ccc2nc3c4c(c5ccccc5c3nc2c1)OC(C)(C)[C@H]1CC[C@H](C)C[C@H]41 [Compound 11] | 134 µM | >1.69^b | u.t.d. | 65.8 µM | 10.9 µM | 149 µM | >3.4^b | 14 | 141 µM | u.t.d. | >1.61^b | 152 µM | 216 µM | 1.42 | 158 µM | u.t.d. | >1.44^b | u.t.d. | u.t.d. | u.t.d. | IC50 (μM) Normoxia ([2]; normoxia, 72 h, series compared with hypoxia 0.1%): u.t.d.; IC50 (μM) Hypoxia 1% O2 ([7]; MCF-7, hypoxia 1% O2, 72 h): u.t.d. |
